Here are results for 29 compounds from US7241791B2, “Substituted 4-(indazol-3-yl)phenols” (Wyeth, priority 2002, dated 2007).

The target of test [1] is T1, human ERα (Homo sapiens, UniProt P03372).
T1 sequence (P03372 1-595): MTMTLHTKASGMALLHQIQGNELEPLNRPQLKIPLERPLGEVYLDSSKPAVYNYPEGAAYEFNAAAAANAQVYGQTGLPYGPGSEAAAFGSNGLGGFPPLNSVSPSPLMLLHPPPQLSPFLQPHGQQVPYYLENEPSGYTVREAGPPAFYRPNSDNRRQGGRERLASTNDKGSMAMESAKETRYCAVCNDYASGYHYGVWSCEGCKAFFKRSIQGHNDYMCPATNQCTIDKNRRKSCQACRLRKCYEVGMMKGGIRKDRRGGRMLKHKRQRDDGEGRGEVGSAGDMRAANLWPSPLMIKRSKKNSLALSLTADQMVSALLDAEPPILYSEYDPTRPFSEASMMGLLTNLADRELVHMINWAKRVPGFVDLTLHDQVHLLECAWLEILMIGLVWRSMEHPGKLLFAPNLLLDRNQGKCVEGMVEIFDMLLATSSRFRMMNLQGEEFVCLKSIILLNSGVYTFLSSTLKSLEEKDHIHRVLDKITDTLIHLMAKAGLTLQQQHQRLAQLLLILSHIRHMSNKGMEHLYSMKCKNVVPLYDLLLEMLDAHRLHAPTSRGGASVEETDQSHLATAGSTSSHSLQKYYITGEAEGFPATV
Kind of test: Creatine kinase expression (ER/CK) in Ad5-wt-hERα infected HAECT-1 cells. The following applies: for ER/CK % E2: efficacy relative to the maximal stimulation observed with E2.

Test [2] addresses T1, human ERα. Kind of test: NF-κB luciferase reporter (ER/NF-KB-luc) in Ad5-wt-hERα infected HAECT-1 cells. The following applies: for Emax: HAECT1, read-out: ER/NF-KB-luc % E2, efficacy relative to the maximal inhibition observed with E2; for IC50: ER/NF-KB-luc IC50, Ad5-wt-ER infected HAECT-1 cells, IL-1β. On the technique in general: In a reporter assay the amount or activity of a reporter protein is the signal.

Read-outs that look alike come from different tables or passages of the source.

With `CC(C)n1nc(-c2ccc(O)cc2)c2cccc(-c3ccccc3)c21` [Example 236, 4-(1-isopropyl-7-phenyl-1H-indazol-3-yl)phenol], the EC50 in test [1] stood at 112 nM. For the same compound, the Emax in test [2] stood at 83%.

With `OCCn1nc(-c2ccc(O)cc2)c2cccc(F)c21` [Example 188, 4-[7-fluoro-1-(2-hydroxyethyl)-1H-indazol-3-yl]phenol], in test [1], the EC50 turned out to be 2450 nM and the “ER/CK % E2” value was 31 % E2. Besides, in test [2], the IC50 is 751 nM and the Emax was 90%.

With `Oc1ccc(-c2nn(C3CCCC3)c3c(C(F)(F)F)cccc23)c(O)c1` [Example 66, 4-[1-cyclopentyl-7-(trifluoromethyl)-1H-indazol-3-yl] benzene-1,3-diol], in test [1], the EC50 is 17 nM and the “ER/CK % E2” value turned out to be 32 % E2. In test [2], the IC50 is 29 nM and the Emax was found to be 56%.

For `Oc1ccc(-c2c3cccc(Cl)c3nn2C2CCCC2)cc1` [Example 52, 4-(7-chloro-2-cyclopentyl-2H-indazol-3-yl)phenol], in test [1], the EC50 came to 111 nM and the “ER/CK % E2” value is 27 % E2. Further, in test [2], 17 nM corresponded to half-maximal inhibition (IC50) and the Emax was determined as 76%.

Regarding `Oc1ccc(-c2nn(Cc3ccccc3)c3ccc(C(F)(F)F)cc23)c(O)c1` [Example 182, 4-[1-benzyl-5-(trifluoromethyl)-1H-indazol-3-yl]benzene-1,3-diol], in test [1], the EC50 turned out to be 2930 nM and the “ER/CK % E2” value is on record as 71 % E2. Further, in test [2], the midpoint of inhibition, the IC50, lay at 443 nM and the Emax is 121%.

As to `CC(C)(C)OC(=O)N[C@@H](CCC(=O)Oc1ccc(-c2nn(C3CCCC3)c3c(F)cccc23)cc1)C(=O)OC(C)(C)C` [Example 117, 1-tert-butyl 5-[4-(1-cyclopentyl-7-fluoro-1H-indazol-3-yl)phenyl] N-(tert-butoxycarbonyl)-L-glutamate], in test [1], the EC50 was found to be 169 nM and the “ER/CK % E2” value stood at 22 % E2. Also, in test [2], the IC50 came to 150 nM and the Emax was 52%.

`OCCn1nc(-c2ccc(O)cc2O)c2cc(F)ccc21` [Example 192, 4-[5-fluoro-1-(2-hydroxyethyl)-1H-indazol-3-yl]benzene-1,3-diol]: in test [1], the EC50 was 608 nM and the “ER/CK % E2” value was found to be 51 % E2. Besides, in test [2], the IC50 was determined as 371 nM and the Emax is 87%.

Take `CCCCCn1nc(-c2ccc(O)cc2)c2cccc(Cl)c21` [Example 41, 4-(7-chloro-1-pentyl-1H-indazol-3-yl)phenol]: in test [1], the EC50 was found to be 415 nM and the “ER/CK % E2” value worked out at 39 % E2. Also, in test [2], the IC50 was found to be 95 nM and the Emax came out at 85%.

In the case of `Cn1nc(-c2ccc(O)cc2)c2cccc(F)c21` [Example 200, 4-(7-fluoro-1-methyl-1H-indazol-3-yl)phenol], in test [1], the EC50 was 1480 nM and the “ER/CK % E2” value was 58 % E2. Also, in test [2], the IC50 is 435 nM and the Emax is 86%.

`Cc1cc(O)ccc1-c1nn(C2CCCC2)c2c(-c3ccccc3C)cccc12` [Example 264, 4-[1-cyclopentyl-7-(2-methylphenyl)-1H-indazol-3-yl]-3-methyl-phenol]: in test [1], the EC50 worked out at 15 nM and the “ER/CK % E2” value was 21 % E2. In addition, in test [2], the IC50 came to 15 nM and the Emax worked out at 74%.

For the compound `C=CCn1nc2c(C(F)(F)F)cccc2c1-c1ccc(O)cc1` [Example 59, 4-[2-allyl-7-(trifluoromethyl)-2H-indazol-3-yl]phenol], in test [1], the EC50 is 133 nM and the “ER/CK % E2” value turned out to be 36 % E2. For the same compound, in test [2], inhibition was half-maximal at 5 nM (IC50) and the Emax came out at 90%.

As for `CCCn1nc2c(Cl)cccc2c1-c1ccc(O)cc1` [Example 44, 4-[7-chloro-2-propyl-2H-indazol-3-yl]phenol], in test [1], the EC50 came out at 309 nM and the “ER/CK % E2” value was found to be 48 % E2. In test [2], the IC50 amounted to 43 nM and the Emax was determined as 90%.

In the case of `CCCCn1nc(-c2ccc(O)cc2)c2ccc(Cl)cc21` [Example 199, 4-(1-butyl-6-chloro-1H-indazol-3-yl)phenol], in test [1], the EC50 turned out to be 1260 nM and the “ER/CK % E2” value worked out at 42 % E2. Besides, in test [2], half-maximal inhibition (IC50) was put at 487 nM and the Emax turned out to be 100%.

As for `Cc1cc(O)ccc1-c1nn(C(C)C)c2c(-c3ccsc3)cccc12` [Example 247, 4-(1-isopropyl-7-thien-3-yl-1H-indazol-3-yl)-3-methylphenol], in test [1], the EC50 turned out to be 17 nM and the “ER/CK % E2” value stood at 42 % E2. Besides, in test [2], the midpoint of inhibition, the IC50, lay at 12 nM and the Emax was 70%.

Regarding `Cn1nc(-c2ccc(O)cc2)c2cc(C(F)(F)F)ccc21` [Example 171, 4-[1-methyl-5-(trifluoromethyl)-1H-indazol-3-yl]phenol], in test [1], the EC50 came to 2380 nM and the “ER/CK % E2” value is recorded as 42 % E2. In addition, in test [2], the IC50 is 582 nM and the Emax worked out at 95%.

With `CCCn1nc(-c2ccc(O)cc2)c2cccc(F)c21` [Example 53, 4-(7-fluoro-1-propyl-1H-indazol-3-yl)phenol], in test [1], the EC50 was found to be 184 nM and the “ER/CK % E2” value was determined as 31 % E2. Besides, in test [2], half-maximal inhibition (IC50) required 58 nM and the Emax came to 84%.

As to `C=CCn1nc(-c2ccc(O)cc2)c2cccc(C(F)(F)F)c21` [Example 58, 4-[1-allyl-7-(trifluoromethyl)-1H-indazol-3-yl]phenol], in test [1], the EC50 turned out to be 97 nM and the “ER/CK % E2” value is 38 % E2. Moreover, in test [2], the IC50 was 20 nM and the Emax worked out at 100%.

`CCCn1nc2c(-c3ccccc3)cccc2c1-c1ccc(O)cc1` [Example 110, 4-(7-phenyl-2-propyl-2H-indazol-3-yl)phenol]: in test [1], the EC50 is 12 nM and the “ER/CK % E2” value is 82 % E2. Further, in test [2], the IC50 turned out to be 2 nM and the Emax came to 89%.

For the compound `CC(C)n1nc(-c2ccc(O)cc2)c2cccc(-c3ccsc3)c21` [Example 226, 4-(1-isopropyl-7-thien-3-yl-1H-indazol-3-yl)phenol], in test [1], the EC50 was determined as 309 nM and the “ER/CK % E2” value is listed as 20 % E2. For the same compound, in test [2], the IC50 was found to be 32 nM and the Emax is 87%.

As to `Cc1cc(O)ccc1-c1nn(C(C)C)c2c(Cl)cccc12` [Example 77, 4-(7-chloro-1-isopropyl-1H-indazol-3-yl)-3-methylphenol], in test [1], the EC50 was determined as 302 nM and the “ER/CK % E2” value is reported as 29 % E2. For the same compound, in test [2], the IC50 was 41 nM and the Emax is 87%.

On to `Oc1ccc(-c2n[nH]c3ccccc23)cc1` [Example 130, 4-(H-indazol-3-yl)phenol], for which, in test [1], the EC50 amounted to 205 nM and the “ER/CK % E2” value turned out to be 54 % E2. Also, in test [2], half-maximal inhibition (IC50) required 62 nM and the Emax was 97%.

With `Cc1cccc2c(-c3ccc(O)cc3)n(C(C)C)nc12` [Example 40, 4-[2-isopropyl-7-methyl-2H-indazol-3-yl]phenol], in test [1], the EC50 amounted to 22 nM and the “ER/CK % E2” value came to 79 % E2. Also, in test [2], the Emax worked out at 108%.

As to `Cc1cccc2c(-c3ccc(O)cc3)n[nH]c12` [Example 34, 4-(7-methyl-1H-indazol-3-yl) phenol], in test [1], the EC50 was 137 nM and the “ER/CK % E2” value is listed as 87 % E2. Moreover, in test [2], the IC50 was found to be 66 nM and the Emax is 115%.

`CCCn1nc2c(C)cccc2c1-c1ccc(O)cc1` [Example 38, 4-[7-methyl-2-propyl-2H-indazol-3-yl]phenol]: in test [1], the EC50 was 25 nM and the “ER/CK % E2” value is given as 70 % E2. Further, in test [2], the Emax worked out at 89%.

In the case of `CC(C)n1nc(-c2ccc(O)cc2)c2cccc(Cl)c21` [Example 45, 4-(7-chloro-1-isopropyl-1H-indazol-3-yl)pheno], in test [1], the EC50 was determined as 121 nM and the “ER/CK % E2” value is 43 % E2. Further, in test [2], 31 nM corresponded to half-maximal inhibition (IC50) and the Emax was 86%.

In the case of `CCCCn1nc(-c2ccc(O)cc2)c2cccc(F)c21` [Example 220, 4-(1-butyl-7-fluoro-1H-indazol-3-yl)phenol], in test [1], the EC50 worked out at 2340 nM and the “ER/CK % E2” value was determined as 48 % E2. Also, in test [2], the IC50 is 112 nM and the Emax was 84%.

With “4-[1-isopropyl-7-(2-methylphenyl)-1H-indazol-3-yl]-3-methyl-phenol [Example 256]”, the EC50 in test [1] (read-out: ER/CK EC50, Ad5-wt-ER infected HAECT-1 cells) turned out to be 292 nM.

Consider `Oc1ccc(-c2nn(-c3ccc(Br)cc3)c3c(C(F)(F)F)cccc23)cc1` [Example 31, 4-[1-(4-bromophenyl)-7-(trifluoromethyl)-1H-indazol-3-yl]phenol], for which, in test [2], the IC50 amounted to 636 nM and the Emax was found to be 120%.

With `Cc1cc(O)ccc1-c1nn(C2CCCC2)c2c(-c3ccc(-c4ccccc4)cc3)cccc12` [Example 261, 4-[7-(1,1′-biphenyl-4-yl)-1-cyclopentyl-1H-indazol-3-yl]-3-methyl-phenol], in test [2], the midpoint of inhibition, the IC50, lay at 98 nM and the Emax turned out to be 42%.

Usually IC50 stands for the concentration needed to halve the response being measured. The low end stands for higher potency, the high end for lower potency.
